Data from patent US6239131A, “1,5 Benzodiazepine derivatives” (Zeria Pharmaceutical Co., Ltd., priority 1996, dated 2001).

What was measured:
CCK-B receptors = biological target: T1, CCK-B receptors (Cavia porcellus, UniProt H0VZC5); experiment: Measurement of Binding Affinity for CCK-B Receptors; set-up: species or system Hartley-strain guinea pig; conditions: inhibition of specific [3H]CCK-8 (1.0 nM) binding; guinea pig cerebral cortex; 25° C., 2 hours; pH 6.5; read-out: Ki (CCK-B receptors)
T1 construct: Cerebral cortices were removed from Hartley-strain guinea pigs, the cerebral cortices were homogenized; from tissue; host or cells: cerebral cortex of Hartley-strain guinea pigs, crude membrane pellet
T1 sequence (H0VZC5 1-426): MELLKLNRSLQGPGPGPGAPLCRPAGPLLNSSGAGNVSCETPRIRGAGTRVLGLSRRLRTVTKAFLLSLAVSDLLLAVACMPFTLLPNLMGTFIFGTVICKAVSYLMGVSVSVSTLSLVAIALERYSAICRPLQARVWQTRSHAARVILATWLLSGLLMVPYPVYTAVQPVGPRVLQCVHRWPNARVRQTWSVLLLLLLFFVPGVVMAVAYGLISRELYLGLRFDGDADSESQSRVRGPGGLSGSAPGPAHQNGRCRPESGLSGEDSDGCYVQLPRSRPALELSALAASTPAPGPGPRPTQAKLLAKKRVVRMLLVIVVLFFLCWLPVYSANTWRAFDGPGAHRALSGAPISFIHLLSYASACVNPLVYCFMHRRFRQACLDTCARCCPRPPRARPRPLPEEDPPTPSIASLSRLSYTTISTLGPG
Protocol: Cerebral cortices were removed from Hartley-strain guinea pigs, the cerebral cortices were homogenized in 50 volumes of 50 mM Tris-HCl buffer (pH7.4) and centrifuged at 50000×g for 10 minutes. The Tris-HCl buffer was added to the pellet and recentrifuged as above two times. The final pellet was rehomogenized in 10 mM HEPES buffer (pH 6.5, which hereinafter be abbreviated as "solvent") containing 5 mM MgCl2, 1 mM EGTA, 0.25 mg/ml bacitracin and 130 mM NaCl, and used as the receptor preparation.
Binding assay was measured as follows. Fifty μl of [^3 H]CCK-8 (at the final concentration of 1.0 nM) and 900 μl of the receptor preparation (800 μg protein/tube) were added to 50 μl of either solvent, CCK-8 (1 μM) or a test compound. These ware reacted at 25° C. for 2 hours. After the reaction, the mixture was filtrated through Whatman GF/B filter presoaked in 0.1% BSA. The filter was washed with 3 ml of ice-cold 50 mM Tris-HCl buffer (pH 7.4) four times, immediately after the filtration. The filter was soaked in the ACS-II scintillation cocktail for a day and radioactivity was measured using a liquid scintillation counter. Non-specific binding was defined as the radioactivity in the presence of 1 μM CCK-8. Specific binding was defined as the difference between total binding (used solvent without CCK-8) and non-specific binding. Inhibitor dissociation constant (Ki) of each test compound was determined from the inhibition of specific [^3 H]CCK-8 binding.

[1] = tested on: pentagastrin-stimulated acid secretion; experiment: Measurement of Inhibition of Pentagastrin-stimulated Acid Secretion; assay type: in vivo, male Sprague-Dawley (SD)-strain rats; conditions: intraduodenal, rat, acid output from 1 to 4 hours after administration, pentagastrin 15 μg/kg/hr
Protocol: Male Sprague-Dawley (SD)-strain rats were used. Each rat was operated to ligate the pylorus, and equip with a duodenal catheter and gastric fistula under a ether anesthesia. After the operation, each rat was placed in a Bollman-type cage and continuously infused pentagastrin (15 μg/kg/hr) through the tail vein. Test compounds were suspended in 0.5% aqueous sodium carboxymethylcellulose (which hereinafter be abbreviated as "vehicle"). Vehicle or test compound was administered through the intraduodenal catheter 1 hour after the beginning of pentagastrin infusion. Acidity of the collected gastric juice was measured by an automatic titillation device. Acid output was determined by multiplying the volume by the acidity of gastric juice. […] [formula]

**Q.** With Cc1ccccc1C(=O)CN1C(=O)C(NC(=O)Nc2cccc(-c3noc(=O)[nH]3)c2)CN(C(=O)C(C)(C)C)c2ccccc21 (stereo not drawn) [Example 62, 1-[1-(2-toluoylmethyl)-2-oxo-5-pivaloyl-1,3,4,5-tetrahydro-2H-1,5-benzodiazepin-3-yl]-3-[3-(5-oxo-4H-1,2,4-oxadiazolin-3-yl)phenyl]urea] as the compound, how does the Ki (CCK-B receptors) read?
**A.** 0.79 nM

**Q.** With Cc1ccc2c(c1)N(CC(=O)C(C)(C)C)C(=O)C(NC(=O)Nc1cccc(C(=O)O)c1)CN2C1CCCCC1 (stereo not drawn) [Example 118, 3-[3-(1-tert-butylcarbonylmethyl-2-oxo-5-cyclohexyl-8-methyl-1,3,4,5-tetrahydro-2H-1,5-benzodiazepin-3-yl)ureido]benzoic acid] as the compound, how does the inhibition in vivo at 30 mg/kg [1] read?
**A.** 88.3%

**Q.** For Cc1ccccc1C(=O)CN1C(=O)C(NC(=O)Nc2cccc(SCC(=O)O)c2)CN(C(=O)C(C)(C)C)c2ccccc21 (stereo not drawn) [Example 78, 3-[3-[1-(2-toluoylmethyl)-2-oxo-5-pivaloyl-1,3,4,5-tetrahydro-2H-1,5-benzodiazepin-3-yl]ureido]phenylthioacetic acid], which Ki (CCK-B receptors) is on record?
**A.** 0.18 nM

**Q.** For CC(C)(C)OC(=O)CN1C(=O)C(NC(=O)Nc2cccc(SCC(=O)O)c2)CN(c2ccccc2)c2ccccc21 (stereo not drawn) [Example 81, 3-[3-[1-tert-butoxycarbonylmethyl-2-oxo-5-phenyl-1,3,4,5-tetrahydro-2H-1,5-benzodiazepin-3-yl]ureido]phenylthioacetic acid], which Ki (CCK-B receptors) is on record?
**A.** 0.56 nM

**Q.** Cc1ccc2c(c1)N(CC(=O)c1cccs1)C(=O)C(NC(=O)Nc1cccc(C(=O)O)c1)CN2C(=O)C(C)(C)C (stereo not drawn) [Example 89, 3-[3-[1-(2-Thenoylmethyl)-2-oxo-5-pivaloyl-8-methyl-1,3,4,5-tetrahydro-2H-1,5-benzodiazepin-3-yl]ureido]benzoic acid] was tested. Which inhibition in vivo at 30 mg/kg [1] did it give?
**A.** 87.8%

**Q.** For Cc1cccc(NC(=O)NC2CN(c3ccccc3)c3ccccc3N(CC(=O)C(C)(C)C)C2=O)c1 (stereo not drawn) [Example 71, 1-(1-tert-butylcarbonylmethyl-2-oxo-5-phenyl-1,3,4,5-tetrahydro-2H-1,5-benzodiazepin-3-yl)-3-(3-methylphenyl)urea], which Ki (CCK-B receptors) is on record?
**A.** 2.88 nM

**Q.** For Cc1ccccc1C(=O)CN1C(=O)C(NC(=O)Nc2cccc(-c3nnn[nH]3)c2)CN(C(=O)C(C)(C)C)c2ccccc21 (stereo not drawn) [Example 61, 1-[1-(2-toluoylmethyl)-2-oxo-5-pivaloyl-1,3,4,5-tetrahydro-2H-1,5-benzodiazepin-3-yl]-3-[3-(tetrazol-5-yl)phenyl]urea], which Ki (CCK-B receptors) is on record?
**A.** 0.98 nM

**Q.** Which Ki (CCK-B receptors) does the source give for CC(C)(C)C(=O)CN1C(=O)C(NC(=O)Nc2cccc(OCC(=O)O)c2)CN(c2ccccc2)c2ccccc21 (stereo not drawn) [Example 35, 3-[3-(1-tert-butylcarbonylmethyl-2-oxo-5-phenyl-1,3,4,5-tetrahydro-2H-1,5-benzodiazepin-3-yl)ureido]phenoxyacetic acid] here?
**A.** 0.61 nM

**Q.** How did the Ki (CCK-B receptors) turn out when Cc1cccc(NC(=O)NC2CN(C(=O)C(C)(C)C)c3ccc(C)cc3N(CC(=O)c3ccccc3C)C2=O)c1 (stereo not drawn) [Example 4, 1-[1-(2-toluoylmethyl)-2-oxo-5-pivaloyl-8-methyl-1,3,4,5-tetrahydro-2H-1,5-benzodiazepin-3-yl]-3-(3-methylphenyl)urea] was run?
**A.** 1.11 nM

**Q.** For CC(C)(C)C(=O)CN1C(=O)[C@H](NC(=O)Nc2cccc(OC(C)(C)C(=O)O)c2)CN(C2CCCCC2)c2ccccc21 [Example 125, (R)-(-)-2-methyl-2-[3-[3-(1-tert-butylcarbonylmethyl-2-oxo-5-cyclohexyl-1,3,4,5-tetrahydro-2H-1,5-benzodiazepin-3-yl)ureido]phenoxy]propionic acid], which Ki (CCK-B receptors) is on record?
**A.** 0.43 nM

**Q.** For CN(C(=O)CN1C(=O)C(NC(=O)Nc2cccc(C(=O)NS(C)(=O)=O)c2)CN(c2ccccc2)c2ccccc21)c1ccccc1 (stereo not drawn) [Example 15, 1-[1-(N-phenyl-N-methyl)carbamoylmethyl-2-oxo-5-phenyl-1,3,4,5-tetrahydro-2H-1,5-benzodiazepin-3-yl]-3-(3-methylsulfonylaminocarbonylphenyl)urea], which Ki (CCK-B receptors) is on record?
**A.** 0.99 nM

**Q.** With CC(C)(C)C(=O)CN1C(=O)[C@H](NC(=O)Nc2cccc(C(=O)O)c2)CN(C[C@@H]2CC[C@H]3C[C@@H]2C3(C)C)c2ccccc21 [Example 157, 3-[3-[(3R)-1-tert-butylcarbonylmethyl-2-oxo-5-[(1S, 2R, 5S)-pinan-10-yl]-1,3,4,5-tetrahydro-2H-1,5-benzodiazepin-3-yl]ureido]benzoic acid] as the compound, how does the Ki (CCK-B receptors) read?
**A.** 1.97 nM

**Q.** How did the inhibition in vivo at 0.3 mg/kg ([1]; 0.3 mg/kg) turn out when Cc1ccc(NC(=O)N[C@@H]2CN(C3CCCCC3)c3ccccc3N(CC(=O)C(C)(C)C)C2=O)cc1C(=O)O [Example 166, (R)-(-)-2-methyl-5-[3-(1-tert-butylcarbonylmethyl-2-oxo-5-cyclohexyl-1,3,4,5-tetrahydro-2H-1,5-benzodiazepin-3-yl)ureido]benzoic acid] was run?
**A.** 51.2%

**Q.** Cc1ccc2c(c1)N(CC(=O)c1ccccc1C)C(=O)C(NC(=O)Nc1cccc(C(=O)O)c1)CN2C(=O)c1ccccn1 (stereo not drawn) [Example 105, 3-[3-[1-(2-toluoylmethyl)-2-oxo-5-(2-pyridylcarbonyl)-8-methyl-1,3,4,5-tetrahydro-2H-1,5-benzodiazepin-3-yl]ureido]benzoic acid] was tested. Which Ki (CCK-B receptors) did it give?
**A.** 1.33 nM

**Q.** For CCC(C)(C)C(=O)N1CC(NC(=O)Nc2cccc(C(=O)O)c2)C(=O)N(CC(=O)c2ccccc2C)c2cc(C)ccc21 (stereo not drawn) [Example 93, 3-[3-[1-(2-toluoylmethyl)-2-oxo-5-(2,2-dimethylbutanoyl)-8-methyl-1,3,4,5-tetrahydro-2H-1,5-benzodiazepin-3-yl]ureido]benzoic acid], which Ki (CCK-B receptors) is on record?
**A.** 1.29 nM

**Q.** How did the Ki (CCK-B receptors) turn out when CC(C)(C)C(=O)CN1C(=O)C(NC(=O)Nc2cccc(C(=O)NS(C)(=O)=O)c2)CN(c2ccccc2)c2ccccc21 (stereo not drawn) [Example 46, 1-(1-tert-butylcarbonylmethyl-2-oxo-5-phenyl-1,3,4,5-tetrahydro-2H-1,5-benzodiazepin-3-yl)-3-(3-methylsulfonylaminocarbonylphenyl)urea] was run?
**A.** 0.7 nM

**Q.** Cc1ccc2c(c1)N(CC(=O)c1ccccc1C)C(=O)C(NC(=O)Nc1cccc(C(=O)O)c1)CN2C(=O)c1ccco1 (stereo not drawn) [Example 113, 3-[3-[1-(2-toluoylmethyl)-2-oxo-5-(furan-2-ylcarbonyl)-8-methyl-1,3,4,5-tetrahydro-2H-1,5-benzodiazepin-3-yl]ureido]benzoic acid] was tested. Which inhibition in vivo at 30 mg/kg [1] did it give?
**A.** 75.7%

**Q.** With CC(C)(C)OC(=O)CN1C(=O)C(NC(=O)Nc2cccc(C(=O)NS(C)(=O)=O)c2)CN(c2ccccc2)c2ccccc21 (stereo not drawn) [Example 16, 1-(1-tert-butoxycarbonylmethyl-2-oxo-5-phenyl-1,3,4,5-tetrahydro-2H-1,5-benzodiazepin-3-yl)-3-(3-methylsulfonylaminocarbonylphenyl)urea] as the compound, how does the Ki (CCK-B receptors) read?
**A.** 2.14 nM

**Q.** COC(=O)N1CC(NC(=O)Nc2cccc(C)c2)C(=O)N(CC(=O)c2ccccc2C)c2ccccc21 (stereo not drawn) [Example 49, 1-[1-(2-toluoylmethyl)-2-oxo-5-methoxycarbonyl-1,3,4,5-tetrahydro-2H-1,5-benzodiazepin-3-yl]-3-(3-methylphenyl)urea] was tested. Which Ki (CCK-B receptors) did it give?
**A.** 5.02 nM

**Q.** With COc1cccc(NC(=O)NC2CN(C3CCCCC3)c3ccccc3N(CC(=O)C(C)(C)C)C2=O)c1 (stereo not drawn) [Example 151, 1-(1-tert-butylcarbonylmethyl-2-oxo-5-cyclohexyl-1,3,4,5-tetrahydro-2H-1,5-benzodiazepin-3-yl)-3-(3-methoxyphenyl)urea] as the compound, how does the Ki (CCK-B receptors) read?
**A.** 2.86 nM

**Q.** Which Ki (CCK-B receptors) does the source give for Cc1ccccc1C(=O)CN1C(=O)C(NC(=O)Nc2cccc(CC(=O)O)c2)CN(C(=O)C(C)(C)C)c2ccccc21 (stereo not drawn) [Example 72, 3-[3-[1-(2-toluoylmethyl)-2-oxo-5-pivaloyl-1,3,4,5-tetrahydro-2H-1,5-benzodiazepin-3-yl]ureido]phenylacetic acid] here?
**A.** 1.57 nM
